Experimental data as given in publication PMC9396064, “The enzyme pseudooxynicotine amine oxidase from Pseudomonas putida S16 is not an oxidase, but a dehydrogenase” (The Journal of Biological Chemistry, 2022).

Target: T1, Pnao (pseudooxynicotine amine oxidase) (Pseudomonas putida, UniProt F8G0P1)
T1 construct: signal peptide removed (from Ala45 onward); N-terminal His-SUMO tag cleaved with ULP1; pET28a, E. coli BL21 (DE3); FAD-containing homodimer
Assay: X-ray crystal structure, […] Å
Format: binding
Details: crystals pH 9; oxidized FAD at the active site

T1 sequence (F8G0P1 45-496): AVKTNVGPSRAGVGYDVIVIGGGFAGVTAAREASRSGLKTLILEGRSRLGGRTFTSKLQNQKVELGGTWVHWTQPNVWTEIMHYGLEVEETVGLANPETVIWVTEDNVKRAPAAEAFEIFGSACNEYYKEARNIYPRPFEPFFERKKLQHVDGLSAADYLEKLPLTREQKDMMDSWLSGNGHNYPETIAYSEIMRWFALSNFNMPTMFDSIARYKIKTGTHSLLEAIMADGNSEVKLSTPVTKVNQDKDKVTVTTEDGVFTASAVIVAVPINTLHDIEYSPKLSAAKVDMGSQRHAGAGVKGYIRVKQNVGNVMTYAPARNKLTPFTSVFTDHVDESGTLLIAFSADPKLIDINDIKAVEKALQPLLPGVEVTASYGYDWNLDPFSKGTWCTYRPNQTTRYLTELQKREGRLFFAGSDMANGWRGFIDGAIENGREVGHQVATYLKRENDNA

Cc1cc2nc3c(=O)[nH]c(=O)nc-3n(C[C@H](O)[C@H](O)[C@H](O)COP(=O)(O)OP(=O)(O)OC[C@H]3O[C@@H](n4cnc5c(N)ncnc54)[C@H](O)[C@@H]3O)c2cc1C [flavin adenine dinucleotide]
X-ray crystal structure, 2.60 Å: Our structure of Pnao contained oxidized FAD
